Experimental findings from patent US20200032347A1, “RNA profiling for individualized diet and treatment advice” (Stichting Katholieke Universiteit, priority 2017, published 2020) are described below.

Assay [1] concerns SKRC-17 cells. Kind of assay: Cell proliferation assay (SRB, cellular protein content). It is filed as cell-based, human. The following applies: proliferation assays. The method, then:
(§1) Cellular protein content was determined as a measure of cell proliferation, using suforhodamine B (SRB) assays as described in (83). Sensitivity to EGCG was determined by adding a concentration range of EGCG (0-50 μM) or DMSO solvent one day after seeding 1,000 cells per well in 96-wells plates (Nunc, Roskilde, Denmark). An SRB assay was performed after 3 days, and IC50 values were determined in GraphPad Prism using the sigmoidal dose response with variable slope nonlinear regression analysis.
(§2) Furthermore cell proliferation over 8 days in presence or absence of EGCG was determined. Cells were seeded at 1,000 cells per well and at day 1 and day 5 after seeding the medium was changed for medium with or without 10 μM EGCG. Controls were incubated with DMSO. Protein content was determined every 2 days. Experiments were performed in triplicate and statistical significance was determined using one-way ANOVA with bonferroni correction.

Assay [2] relates to SKRC-7 cells. The description is as above. The format is cell-based, human. The following applies: proliferation assays. As to the method:
as §1, §2

As to `NC(=O)c1ccc(N)nc1` [Compound 6-AN, 6-aminonicotinamide], the values for the cell proliferation response entry in assay [1] and in assay [2] were “significantly decreased cell proliferation” and “increase of cell proliferation”, respectively.
